Assay results as given in article PMC3774368, “Functional Properties of Five Dictyostelium discoideum P2X Receptors” (The Journal of Biological Chemistry, 2013).
pEC50: −log10 of the molar value.

Legend:
Format in all cases: cell-based
[1] = target: T1, P2XA (Dictyostelium discoideum, UniProt Q86JM7); test: whole-cell patch clamp, ADP-evoked current, HEK293 cells; conditions: weak agonist; external and internal Na+; authors note possible ATP impurity in commercial nucleotides
T1 construct: humanized cDNA, full length, C-terminal EYMPME (EE) tag, pcDNA3.1, transient expression in HEK293 cells
T1 sequence (Q86JM7 1-378): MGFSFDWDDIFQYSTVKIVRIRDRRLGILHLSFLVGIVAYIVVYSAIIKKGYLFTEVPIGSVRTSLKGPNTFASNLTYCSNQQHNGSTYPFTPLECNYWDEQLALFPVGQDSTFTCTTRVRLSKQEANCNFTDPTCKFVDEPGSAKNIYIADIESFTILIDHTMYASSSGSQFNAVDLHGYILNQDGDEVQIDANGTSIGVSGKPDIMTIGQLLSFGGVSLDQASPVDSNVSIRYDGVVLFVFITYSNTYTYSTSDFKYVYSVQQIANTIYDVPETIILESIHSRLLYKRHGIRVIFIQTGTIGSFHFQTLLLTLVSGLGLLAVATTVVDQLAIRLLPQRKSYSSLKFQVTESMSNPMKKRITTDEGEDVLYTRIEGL

[2] = target: T2, P2XE (Dictyostelium discoideum, UniProt Q54JH4); test: whole-cell patch clamp, ATP-evoked current, HEK293 cells
T2 construct: humanized cDNA (Genscript), full length, C-terminal EYMPME (EE) tag, pcDNA3.1, transient expression in HEK293 cells
T2 sequence (Q54JH4 1-388): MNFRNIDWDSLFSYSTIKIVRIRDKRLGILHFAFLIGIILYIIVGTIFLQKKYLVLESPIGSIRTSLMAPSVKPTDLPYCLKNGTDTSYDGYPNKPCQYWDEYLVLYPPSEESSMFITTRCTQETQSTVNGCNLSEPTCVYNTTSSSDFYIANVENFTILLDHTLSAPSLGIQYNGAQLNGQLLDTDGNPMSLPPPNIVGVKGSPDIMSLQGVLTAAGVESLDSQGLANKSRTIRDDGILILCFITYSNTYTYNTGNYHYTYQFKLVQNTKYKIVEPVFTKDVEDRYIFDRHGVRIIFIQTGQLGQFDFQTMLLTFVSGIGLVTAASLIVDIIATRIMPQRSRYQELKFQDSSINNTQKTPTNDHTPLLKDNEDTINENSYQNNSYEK

[3] = target: T3, P2XB (Dictyostelium discoideum, UniProt Q553Y1); test: as above
T3 construct: humanized cDNA (Genscript), full length, C-terminal EYMPME (EE) tag, pcDNA3.1, transient expression in HEK293 cells
T3 sequence (Q553Y1 1-369): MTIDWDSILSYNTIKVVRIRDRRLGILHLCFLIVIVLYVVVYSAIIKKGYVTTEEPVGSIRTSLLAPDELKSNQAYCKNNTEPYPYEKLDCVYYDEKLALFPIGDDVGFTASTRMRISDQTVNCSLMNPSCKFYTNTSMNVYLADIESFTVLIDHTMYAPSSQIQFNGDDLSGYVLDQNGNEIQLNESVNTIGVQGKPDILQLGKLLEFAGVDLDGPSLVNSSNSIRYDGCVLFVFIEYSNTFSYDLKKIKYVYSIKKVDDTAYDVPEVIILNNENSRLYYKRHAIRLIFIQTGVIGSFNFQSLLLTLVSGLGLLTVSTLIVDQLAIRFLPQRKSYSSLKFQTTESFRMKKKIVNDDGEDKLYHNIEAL

[4] = target: T1, P2XA; test: as above
[5] = target: T4, P2XD (Dictyostelium discoideum, UniProt Q54J33); test: as above
T4 construct: humanized cDNA (Genscript), full length, C-terminal EYMPME (EE) tag, pcDNA3.1, transient expression in HEK293 cells
T4 sequence (Q54J33 1-407): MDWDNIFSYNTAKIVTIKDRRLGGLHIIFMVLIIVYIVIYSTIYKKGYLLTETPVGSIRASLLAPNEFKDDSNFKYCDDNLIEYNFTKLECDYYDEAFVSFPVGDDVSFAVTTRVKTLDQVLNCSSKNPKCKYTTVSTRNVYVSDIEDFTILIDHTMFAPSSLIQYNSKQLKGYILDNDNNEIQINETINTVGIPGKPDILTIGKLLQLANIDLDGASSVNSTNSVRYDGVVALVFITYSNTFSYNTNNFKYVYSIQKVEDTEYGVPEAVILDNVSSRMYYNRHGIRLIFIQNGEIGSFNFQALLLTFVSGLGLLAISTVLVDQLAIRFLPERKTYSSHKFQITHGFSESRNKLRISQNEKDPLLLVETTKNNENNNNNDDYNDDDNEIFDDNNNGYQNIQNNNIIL

Row | SMILES | % of ATP current at 3 mM [1] | pEC50 [2] | pEC50 [3] | pEC50 [4] | pEC50 [5]
1 | Nc1ncnc2c1ncn2[C@@H]1O[C@H](COP(=O)(O)OP(=O)(O)O)[C@@H](O)[C@H]1O [ADP] | ~ 10% | – | – | – | –
2 | Nc1ncnc2c1ncn2[C@@H]1O[C@H](COP(=O)(O)OP(=O)(O)OP(=O)(O)O)[C@@H](O)[C@H]1O [ATP] | – | ~3.52 | ~2.52 | 3.80 | ~2.52
